Results published in ChEMBL document CHEMBL3045390, “Synthesis of 3-(5-bromo-2,3-dimethoxy-phenyl)-[1, 2, 4] oxadiazole analogues and their evaluation as anti-Parkinsons agents” (Med Chem Res, 2008).
The source made the active and inactive calls. The rule behind the calls is not given here.

Key:
[1] = Lipophilicity, log P of the compound; format: physicochemical; conditions: octanol/water
Rattus norvegicus [2] = test: Neurotoxicity inRattus norvegicus albino (rat) assessed as motor coordination at 200 mg/kg, ip after 30 min by […]; format: toxicity, organism-based; parameters: dose 200 mg/kg, route intraperitoneal; conditions: in vivo, 0.5 h
Rattus norvegicus [3] = test: Antiparkinson's activity in Rattus norvegicus albino (rat) assessed as reduction of chlorpromazine-induced catatonia at 100 mg/kg, ip administered 30 min before chlorpromazine challenge measured up to 180 min; format: functional, organism-based; parameters: dose 100 mg/kg
Rattus norvegicus [4] = test: Neurotoxicity inRattus norvegicus albino (rat) assessed as motor coordination at 10 mg/kg, ip after 30 min by […]; format: toxicity, organism-based; parameters: dose 10 mg/kg, route intraperitoneal; conditions: in vivo, 0.5 h
Rattus norvegicus [5] = test: Antiparkinson's activity in Rattus norvegicus albino (rat) assessed as reduction of chlorpromazine-induced catatonia at 10 mg/kg, ip administered 30 min before chlorpromazine challenge measured up to 180 min; format: functional, organism-based; parameters: dose 10 mg/kg

| logP [1] | Compound | Activity (Rattus norvegicus [2]) | Activity (Rattus norvegicus [3]) | Activity (Rattus norvegicus [4]) | Activity (Rattus norvegicus [5]) |
| --- | --- | --- | --- | --- | --- |
| 3.79 | COc1cc(Br)cc(-c2noc(C3CCCN3C)n2)c1OC (stereo not drawn) | Non-toxic | Active |  |  |
|  | N[C@@H](Cc1ccc(O)c(O)c1)C(=O)O [LEVODOPA] |  |  | Non-toxic | inactive |
| 5.81 | COc1cc(Br)cc(-c2noc(C3CCCN(Cc4ccccc4)C3)n2)c1OC (stereo not drawn) | Toxic | Active |  |  |
| 5.52 | COc1cc(Br)cc(-c2noc(C3CCCN3Cc3ccccc3)n2)c1OC (stereo not drawn) | Toxic | Active |  |  |
| 4.21 | COc1cc(Br)cc(-c2noc(C3CCCCN3C)n2)c1OC (stereo not drawn) | Non-toxic | Active |  |  |
| 5.81 | COc1cc(Br)cc(-c2noc(C3CCCCN3Cc3ccccc3)n2)c1OC (stereo not drawn) | Toxic | Active |  |  |
|  | NCCc1ccc(O)c(O)c1 [DOPAMINE] |  |  | Non-toxic | inactive |
| 3.86 | COc1cc(Br)cc(-c2noc(C3CCN(C)CC3)n2)c1OC | Non-toxic | Active |  |  |
| 4.08 | COc1cc(Br)cc(-c2noc(C3CCCN(C)C3)n2)c1OC (stereo not drawn) | Non-toxic | Active |  |  |
| 5.59 | COc1cc(Br)cc(-c2noc(C3CCN(Cc4ccccc4)CC3)n2)c1OC | Toxic | Active |  |  |
